According to patent US20240216401A1, “COMBINATION THERAPY BY USING AKR1C3-ACTIVATED COMPOUND WITH IMMUNE CHECKPOINT INHIBITOR” (OBI Pharma, Inc., priority 2021, published 2024):
Where “and” joins values, the source holds several entries; their conditions need not be identical. Identical values can stand only once. Entries after “also recorded” stand apart in the source; their conditions may differ.

Key:
Type in all cases: in vivo, Mus musculus
[1] = test system: HepG2 tumor; test: Example 1: tumor volume, tumor weight and TGI in HepG2 tumor bearing humanized mice
Procedure: (§1) Each group contains five mice. The human hepatocellular carcinoma cell line HepG2 were subcutaneously inoculated to the advanced immune deficiency mice. Total of 30 mice were included in this study.
2.2. […] The subcutaneous injection volume was […].
(§2) 3.1. […] The injection was performed using insulin syringe with the dosage of 10 mg/kg (Dosage of injection was changed to 20 mg/kg from Day 15) and injection volume of 10 mL/kg. […] The reference item was administered for G1. The procedure followed the standards of sample administration.
(§3) 3.2. The test item anti-hPD-L1 antibody or reference items were intraperitoneally injected to the mice on Day 8 after the inoculation of tumor cells. The injection was performed using insulin syringe with the dosage of 10 mg/kg (Dosage of injection was changed to 20 mg/kg from Day 15) and injection volume of 10 mL/kg. The test item anti-hPD-L1 was continuously administered on Day 8, 11, 15, 18, 22, 25, 29 and 32 for G4 and G6. The reference item was administered for G1. The procedure followed the standards of sample administration.
(§4) 3.3. […] The injection was performed using insulin syringe with the dosage of 1 mg/kg and injection volume of 5 mL/kg. […] The reference item was administered for G1. The procedure followed the standards of sample administration.
The measurement was performed from the next day of the inoculation. The tumor volumes were measured and recorded twice a week (Mon., Thur.). Tumor volume was calculated by ellipsoid equation according to the records ((major axis×minor axis×minor axis)×(π/6)).
Tumor volumes were used to calculate tumor growth inhibition (TGI) rates according to the following formula: TGI (%)=[1−(Ti−T0)/(Ci−C0)]×100, where Ti and Ci indicate the mean tumor volume in the treatment groups and vehicle group at the end of the experiment (Day 35). Whereas, T0 and C0 indicate the mean tumor volumes in the treatment group and vehicle group at the beginning of the experiment (Day 1).
(§5) Mice were sacrificed by CO2 euthanasia at the end of the study duration, and the connective tissue around tumor was resected. The tumor samples were then removed and weighed. The half tissue was fixed in 10% formaldehyde and then embedded in paraffin; the other half was prepared for the isolation of tumor-infiltrating lymphocytes (TILs).

[2] = Example 1: body weight and mortality of HepG2 tumor bearing humanized mice; settings: OBI-3424 1 mg/kg IV, antibody 10 mg/kg IP (20 from Day 15)
Procedure: as §1, §2, §3, §4
The measurement was performed from the next day of the inoculation. The animal body weights were measured and recorded twice per week.

[3] = test system: CD8^+ cytotoxic T cells (CTL) in tumor-infiltrating lymphocytes; test: Example 1: flow cytometry, percentage of CTL cells in TILs
Procedure: as §5
(§6) The half of mouse tumors were dissected into smaller fragments using scalpels and then digested with a cocktail of collagenase, DNase I, and Hyaluronidase (Collagenase #C5138, DNase I #D5025, Hyaluronidase #H6254, SigmaAldrich) for at least 2 hours.
(§7) Cells were stained with the fluorescently conjugated surface antibodies and incubated for 30 minutes at 4° C., and then resuspended in staining buffer for flow cytometric analysis. Flow cytometry was done using a Navios EX Flow Cytometer (Beckman Coulter). Data were analyzed using the Kaluza Analysis Software (Beckman Coulter).

[4] = test system: CD4^+ T helper cells in tumor-infiltrating lymphocytes; test: Example 1: flow cytometry, percentage of TH cells in TILs; settings: individual mice
Procedure: as §5, §6, §7

[5] = test system: NK cells in tumor-infiltrating lymphocytes; test: Example 1: flow cytometry, percentage of NK cells in TILs; settings: individual mice
Procedure: as §5, §6, §7

[6] = test system: PD-L1^+ cells in tumor-infiltrating lymphocytes; test: Example 1: flow cytometry, percentage of PD-L1 cells in TILs; settings: individual animal
Procedure: as §5, §6, §7

[7] = TILs, flow cytometer, individual mice
[8] = TILs, gate CD45^+CD8^+ cells, individual mice

C[C@H](OP(=O)(N1CC1)N1CC1)c1ccc([N+](=O)[O-])c(Oc2cccc(C(=O)N(C)C)c2)c1 [OBI-3424, (S)-1-(3-(3-N,N-dimethylaminocarbonyl)phenoxyl-4-mtrophenyl)-1-ethyl-N,N′-bis(ethylene)phosphoramidate]
Tumor volume, Mean ([1]; D 1, group mean, OBI-3424 1 mg/kg IV, antibody 10 mg/kg IP (20 from Day 15)): 397.08 mm^3 | Tumor volume, Mean ([1]; D 4, group mean, OBI-3424 1 mg/kg IV, antibody 10 mg/kg IP (20 from Day 15)): 295.20 mm^3 | Tumor volume, Mean ([1]; D 7, group mean, OBI-3424 1 mg/kg IV, antibody 10 mg/kg IP (20 from Day 15)): 298.28 mm^3 | Tumor volume, Mean ([1]; D 11, group mean, OBI-3424 1 mg/kg IV, antibody 10 mg/kg IP (20 from Day 15)): 344.17 mm^3 | Tumor volume, Mean ([1]; D 14, group mean, OBI-3424 1 mg/kg IV, antibody 10 mg/kg IP (20 from Day 15)): 385.09 mm^3 | Tumor volume, Mean ([1]; D 18, group mean, OBI-3424 1 mg/kg IV, antibody 10 mg/kg IP (20 from Day 15)): 535.36 mm^3 | Tumor volume, Mean ([1]; D 21, group mean, OBI-3424 1 mg/kg IV, antibody 10 mg/kg IP (20 from Day 15)): 627.45 mm^3 | Tumor volume, Mean ([1]; D 25, group mean, OBI-3424 1 mg/kg IV, antibody 10 mg/kg IP (20 from Day 15)): 773.19 mm^3 | Tumor volume, Mean ([1]; D 28, group mean, OBI-3424 1 mg/kg IV, antibody 10 mg/kg IP (20 from Day 15)): 718.91 mm^3 | Tumor volume, Mean ([1]; D 32, group mean, OBI-3424 1 mg/kg IV, antibody 10 mg/kg IP (20 from Day 15)): 643.09 mm^3 | Tumor volume, Mean ([1]; D 35, group mean (mean±SEM), OBI-3424 1 mg/kg IV, antibody 10 mg/kg IP (20 from Day 15)): 590.62±164.32 mm^3 and 590.62 mm^3 | Tumor weight, Mean ([1]; D 35, group mean, OBI-3424 1 mg/kg IV, antibody 10 mg/kg IP (20 from Day 15)): 274.44 mg | mean tumor volume compared with vehicle (in words) ([1]; Day 35, vs vehicle (G1), Student's t-test): Significantly reduced; also recorded: significantly suppressed | effect on tumor growth (conclusion in words) ([1]; HepG2 humanized mouse model): efficiently anti-tumor effect | TGI ([1]; from mean tumor volumes Day 35 vs Day 1, relative to vehicle, OBI-3424 1 mg/kg IV, antibody 10 mg/kg IP (20 from Day 15)): 83.13% | tumor weight compared with vehicle (in words) ([1]; sacrifice Day 36, vs vehicle (G1)): significantly suppressed | Body Weight, Mean ([2]; Day 18, group mean): 24.23 g | Body Weight, Mean ([2]; Day 21, group mean): 24.04 g | CD8^+ cytotoxic T cells (CTL) population in tumors compared with vehicle (in words) ([3]; Example 1, TILs at sacrifice, flow cytometry): significantly elevated | CD25^+ CTL cells (CD45^+CD8^+ CD25^+) Total % [3, 7]: 0.27% and 0.30% and 0.77% and 0.52% and 0.28% | CTL cells (CD45^+CD8^+) Total % [3, 7]: 20.93% and 12.12% and 21.14% and 45.53% and 36.08% | PD-1^+ CTL cells (CD45^+CD8^+ PD-1^+) Total % [3, 7]: 21.41% and 12.30% and 20.63% and 41.26% and 28.90% | CTL cells (CD45^+CD8^+) CD45^+ Gated % ([3]; TILs, gate CD45^+ cells, individual mice): 49.08% and 66.81% and 72.14% and 74.09% and 57.70% | CD25^+ CTL cells (CD45^+CD8^+ CD25^+) CTL Gated % [3, 8]: 1.27% and 2.48% and 3.64% and 1.13% and 0.78% | PD-1^+ CTL cells (CD45^+CD8^+ PD-1^+) CTL Gated % [3, 8]: 92.13% and 91.25% and 99.25% and 91.79% and 85.06% | CD25^+ CTL cells (CD45^+CD8^+ CD25^+) Cell count ([3]; TILs, individual mice): 0.12 ×10^5 and 0.22 ×10^5 and 0.63 ×10^5 and 0.13 ×10^5 and 0.11 ×10^5 | CTL cells (CD45^+CD8^+) Cell count ([3]; TILs, individual mice): 9.13 ×10^5 and 8.93 ×10^5 and 17.29 ×10^5 and 11.11 ×10^5 and 14.65 ×10^5 | PD-1^+ CTL cells (CD45^+CD8^+ PD-1^+) Cell count ([3]; TILs, individual mice): 9.33 ×10^5 and 9.07 ×10^5 and 16.88 ×10^5 and 10.07 ×10^5 and 11.73 ×10^5 | CD25^+ TH cells (CD45^+CD4^+ CD25^+) Total % ([4]; flow cytometer): 1.06% and 0.68% and 0.82% and 0.52% and 0.53% | PD-1^+ TH cells (CD45^+CD4^+ PD-1^+) Total % ([4]; flow cytometer): 19.45% and 9.29% and 13.77% and 15.00% and 16.75% | TH cells (CD45^+CD4^+) Total % ([4]; flow cytometer): 18.53% and 9.14% and 14.30% and 14.34% and 16.81% | TH cells (CD45^+CD4^+) CD45^+ Gated % ([4]; gate CD45^+ cells): 43.45% and 50.36% and 48.78% and 23.33% and 26.88% | CD25^+ TH cells (CD45^+CD4^+CD25^+) TH Gated % ([4]; gate CD45^+CD4^+ cells): 5.70% and 7.39% and 5.74% and 3.63% and 3.15% | PD-1^+ TH cells (CD45^+CD4^+ PD-1^+) TH Gated % ([4]; gate CD45^+CD4^+ cells): 99.46% and 98.15% and 99.75% and 97.06% and 97.78% | CD25^+ TH cells (CD45^+CD4^+ CD25^+) Cell count [4]: 0.46 ×10^5 and 0.50 ×10^5 and 0.67 ×10^5 and 0.13 ×10^5 and 0.22 ×10^5 | PD-1^+ TH cells (CD45^+CD4^+ PD-1^+) Cell count [4]: 8.48 ×10^5 and 6.85 ×10^5 and 11.26 ×10^5 and 3.66 ×10^5 and 6.80 ×10^5 | TH cells (CD45^+CD4^+) Cell count [4]: 8.08 ×10^5 and 6.74 ×10^5 and 11.70 ×10^5 and 3.50 ×10^5 and 6.82 ×10^5 | CD16^+ NK cells (CD45^+CD56^+ CD16^+) Total % ([5]; flow cytometer): 0.39% and 0.21% (2×) and 0.24% and 0.17% | NK cells (CD45^+CD56^+) Total % ([5]; flow cytometer): 2.47% and 1.62% and 1.15% and 2.73% and 1.39% | PD-1^+ NK cells (CD45^+CD56^+PD-1^+) Total % ([5]; flow cytometer): 3.26% and 1.51% and 1.63% and 2.76% and 2.38% | NK cells (CD45^+CD56^+) CD45^+ Gated % ([5]; gate CD45^+ cells): 6.06% and 9.96% and 4.16% and 5.20% and 2.33% | CD16^+ NK cells (CD45^+CD56^+ CD16^+) NK Gated % ([5]; gate CD45^+CD56^+ cells): 15.62% and 12.65% and 20.43% and 7.71% and 11.87% | PD-1^+ NK cells (CD45^+CD56^+PD-1^+) NK Gated % ([5]; gate CD45^+CD56^+ cells): 88.81% and 88.82% and 97.60% and 90.05% and 83.33% | CD16^+ NK cells (CD45^+CD56^+ CD16^+) Cell count [5]: 0.17 ×10^5 and 0.15 ×10^5 and 0.20 ×10^5 and 0.05 ×10^5 and 0.07 ×10^5 | NK cells (CD45^+CD56^+) Cell count [5]: 1.08 ×10^5 and 1.19 ×10^5 and 0.94 ×10^5 and 0.67 ×10^5 and 0.56 ×10^5 | PD-1^+ NK cells (CD45^+CD56^+PD-1^+) Cell count [5]: 1.42 ×10^5 and 1.11 ×10^5 and 1.33 ×10^5 and 0.67 ×10^5 and 0.97 ×10^5 | CD45^+ cells Cell count (×10^6) [6]: 1.86 ×10^6 and 1.34 ×10^6 and 2.40 ×10^6 and 1.50 ×10^6 and 2.54 ×10^6 | CD45^+ cells Gated % [6]: 58.88% and 28.16% and 40.69% and 79.75% and 79.11% | CD45^+ cells Total % [6]: 42.64% and 18.14% and 29.31% and 61.46% and 62.53% | Total PD-L1^+ cells (PD-L1^+) Cell count (×10^5) [6]: 2.17 ×10^5 and 14.22 ×10^5 and 4.16 ×10^5 and 0.26 ×10^5 and 0.25 ×10^5 | Total PD-L1^+ cells (PD-L1^+), Total % [6]: 4.97% and 19.30% and 5.09% and 1.08% and 0.62% | Total PD-L1^+ cells (PD-L1^+), Total cells Gated % [6]: 5.67% and 24.15% and 6.02% and 1.15% and 0.65% | Total cells Cell count (×10^6) [6]: 3.82 ×10^6 and 5.89 ×10^6 and 6.92 ×10^6 and 2.30 ×10^6 and 3.83 ×10^6 | Total cells Gated % [6]: 87.63% and 79.89% and 84.57% and 94.06% and 94.44% | Total cells Total % [6]: 87.63% and 79.89% and 84.57% and 94.06% and 94.44%
